The text below walks through data of paper PMC6964649, “Light-controllable dithienylethene-modified cyclic peptides: photoswitching the in vivo toxicity in zebrafish embryos” (Beilstein Journal of Organic Chemistry, 2020).

Structures are written as SMILES. Marks after values point to notes of the source that are not given here. Starred links: 1 amine or outer side, 2 acyl side, 3 side chain; linkers in the order of their positions; H or OH if unused. Positions of bridges follow the written chain, without caps; N, C: chain ends. Non-standard residues stand in square brackets, D forms with d. Residues, ends and D or L forms follow the SMILES beside them. *: point of attachment. X2 = Cc1sc(C(=O)[C@@H]2CCCN2[*:2])cc1C1=C(c2cc(C(=O)[*:1])sc2C)CCC1; Leu(3R-OH) = CC(C)[C@@H](O)[C@H](N)C(=O)O; NMeL = CN[C@@H](CC(C)C)C(=O)O; Orn = NCCC[C@H](N)C(=O)O; NHiPr = CC(C)N*

Data set [1] concerns D. rerio embryos. Put plainly: D. rerio embryotoxicity assay, direct application of ring-open photoform. The data set is classed as in vivo, Danio rerio. The settings on record: direct application of 1 or ring-open photoform, zebrafish embryos at 3 dpf, final DMSO 0.2%, ambient light, value ± STD; for LD50 (open)^1h: 1 h incubation, 12–15 or 18–20 embryos; for LD50 (open)^3h: 3 h incubation; for LD50 (open)^24h: 24 h incubation. The method, then:
(§1) To establish the assay for screening the photoswitchable peptides, we first studied the toxicity of our prototype 2 by varying the assay conditions. The parent peptide GS 1 was used as a control. […] We measured the doses causing the death of 50% embryos (LD50). We tested two different assay variations: in one version, the LD50(open) was determined after direct application of 1 or of the ring-open form of 2. In the other variant, the photoswitchable peptide was applied in the ring-closed photoform in the darkness, its LD50(closed) was recorded, and then in situ illumination (“photoactivation”) was applied to switch into the ring-open photoform and obtain the respective LD50(opened) values (see Figure 2 for the study design and the killing curves).
(§2) Figure 2 Two versions of the D. rerio embryotoxicity assay for DAE-modified peptides: timelines, peptide photostates, ages of larvae, and definitions of the measured characteristics. (A) Direct application of the non-photoswitchable parent GS 1 or of the ring-open photoform of our prototype 2, and the corresponding killing curves for 1 (C, top, black) and 2 (C, bottom, red). (B) “Photoactivation” assay: initial application of the ring-closed photoform, incubation in darkness, followed by in situ photoconversion into the ring-open(ed) photoform, with the corresponding killing curves for 1 (D, top) and 2 (D, bottom, green for ring-closed, red for ring-open isomers). The latter panel illustrates the “phototherapeutic safety window” (green arrow) as the difference in toxicity between the ring-closed and the ring-open isomers upon photoactivation.
(§3) Each time, 12–15 or 18–20 zebrafish embryos at 3 dpf were treated by applying the corresponding peptide dissolved in dimethyl sulfoxide (final dimethyl sulfoxide concentration was 0.2%). Double-concentrated peptide stock solutions (64–512 µg/mL) were prepared by weighing lyophilized peptides, dissolving in 10% dimethyl sulfoxide and constructing two-fold dilution series with ten–eleven dilution steps. In the photoconversion experiments, in order to prevent spontaneous photoswitching of the ring-closed peptides by vis light, zebrafish embryos and peptides were kept in the dark before the first readout, and the vials were sealed to avoid evaporation of the embryonic medium (E3) at prolonged incubation times. After the first screen, without exchanging any solution, the vials with embryos and ring-closed photoforms were exposed to intense illumination for 10 min (LUMATEC Superlite 410 light source, λ = 570 nm, irradiance approximately 20 mW/cm^2). Mortality was then determined under ambient light conditions at 1 h and 24 h after the illumination procedure.

Data set [2] has as its system D. rerio embryos. Put plainly: D. rerio embryotoxicity "photoactivation" assay (ring-closed photoform in darkness, then in situ photoconversion). The data set is classed as in vivo, Danio rerio. The settings on record: for LD50 (opened)^1h / LD50 (opened)^24h: after 24 h with ring-closed form in dark, in situ illumination 10 min, λ = 570 nm, approx. 20 mW/cm^2; for LD50 (opened)^1h: mortality 1 h after illumination, embryos 4 dpf; for LD50 (opened)^24h: mortality 24 h after illumination, embryos 5 dpf at readout; for LD50(closed)^24h/LD50(open)^24h ratio: phototherapeutic safety window, ring-closed 24 h LD50 (dark) divided by ring-open 24 h LD50 (direct application); for LD50 (closed)^24h: ring-closed photoform applied to embryos at 3 dpf, 24 h in the dark. The method, then: as §1, §2, §3

Setting [3] is: sealed vials, E3 medium, 0.2% DMSO, value ± STD.

Consider `CC[C@H](C)[C@@H]1NC(=O)c2cc(c(C)s2)C2=C(CCC2)c2cc(sc2C)C(=O)[C@@H]2CCCN2C(=O)[C@H]([C@@H](C)CC)NC(=O)[C@H](CCCN)NC(=O)[C@H](CC(C)C)NC(=O)[C@H](CC(C)C)N(C)C(=O)[C@@H](Cc2ccccc2)NC(=O)[C@H]([C@@H](C)CC)NC(=O)[C@H](CCCN)NC1=O` [Peptide 10] (I[Orn]I[dF][NMeL]L[Orn]I; linker N-C via X2), for which, in the data set on D. rerio embryos [1], the “LD50 (open)^1h” value is reported as 1.3 ± 1.5 µg/mL, the “LD50 (open)^3h” value was found to be 1.0 ± 0.6 µg/mL and the “LD50 (open)^24h” value turned out to be 1.0 ± 0.6 µg/mL. Also, in the data set on D. rerio embryos [2] (value ± STD), the “LD50 (opened)^1h” value was found to be 2.2 ± 1.0 µg/mL and the “LD50 (opened)^24h” value was 1.3 ± 1.5 µg/mL. Besides, the “LD50(closed)^24h/LD50(open)^24h ratio” value with D. rerio embryos [2] is reported as 9.5. Further, the “LD50 (closed)^24h” value with D. rerio embryos [2] (setting [3]) is on record as 9.5 ± 0.1 µg/mL.
Consider `Cc1sc2cc1C1=C(CCC1)c1cc(sc1C)C(=O)[C@@H]1CCCN1C(=O)[C@H](C(C)C)NC(=O)[C@H](CCCN)NC(=O)[C@H]([C@H](O)C(C)C)NC(=O)[C@@H]1CCCN1C(=O)[C@@H](Cc1ccccc1)NC(=O)[C@H](C(C)C)NC(=O)[C@H](CCCN)NC(=O)[C@H](C(C)C)NC2=O` [Peptide 13] (V[Orn]V[dF]P[Leu(3R-OH)][Orn]V; linker N-C via X2), for which, in the data set on D. rerio embryos [1], the “LD50 (open)^1h” value was 4.8 ± 3.8 µg/mL, the “LD50 (open)^3h” value is given as 4.3 ± 3.8 µg/mL and the “LD50 (open)^24h” value is 2.2 ± 1.0 µg/mL. In the data set on D. rerio embryos [2] (value ± STD), the “LD50 (opened)^1h” value is recorded as 6.4 ± 0.4 µg/mL and the “LD50 (opened)^24h” value came to 3.4 ± 0.5 µg/mL. In addition, the “LD50(closed)^24h/LD50(open)^24h ratio” value in the data set on D. rerio embryos [2] is on record as 20.5. Further, the “LD50 (closed)^24h” value with D. rerio embryos [2] (measurement performed once, STD not calculated) is on record as 45.0^b µg/mL.
`Cc1sc2cc1C1=C(CCC1)c1cc(sc1C)C(=O)[C@@H]1CCCN1C(=O)[C@H](C)NC(=O)[C@H](CCCN)NC(=O)[C@H](C(C)C)NC(=O)[C@@H]1CCCN1C(=O)[C@@H](Cc1ccccc1)NC(=O)[C@H](CC(C)C)NC(=O)[C@H](CCCN)NC(=O)[C@H](C(C)C)NC2=O` [Peptide 3]: in the data set with D. rerio embryos [1], the “LD50 (open)^1h” value came to 9.3 ± 7.8 µg/mL, the “LD50 (open)^3h” value is recorded as 4.8 ± 3.9 µg/mL and the “LD50 (open)^24h” value is on record as 4.7 ± 0.1 µg/mL. Further, in the data set with D. rerio embryos [2] (value ± STD), the “LD50 (opened)^1h” value came out at 9.5 ± 1.3 µg/mL and the “LD50 (opened)^24h” value is listed as 6.2 ± 0.6 µg/mL. The “LD50(closed)^24h/LD50(open)^24h ratio” value with D. rerio embryos [2] turned out to be 6.6. Further, the “LD50 (closed)^24h” value with D. rerio embryos [2] (setting [3]) is 31.1 ± 4.2 µg/mL.
As to `Cc1sc2cc1C1=C(CCC1)c1cc(sc1C)C(=O)[C@@H]1CCCN1C(=O)[C@H](C(C)C)NC(=O)[C@H](CCCN)NC(=O)[C@H](C(C)C)NC(=O)[C@@H]1CCCN1C(=O)[C@@H](Cc1ccccc1)NC(=O)[C@H](C(C)C)NC(=O)[C@H](CCCN)NC(=O)[C@H]([C@@H](C)O)NC2=O` [Peptide 6] (T[Orn]V[dF]PV[Orn]V; linker N-C via X2), in the data set on D. rerio embryos [1], the “LD50 (open)^1h” value was 30.8 ± 15.0 µg/mL, the “LD50 (open)^3h” value was 13.2 ± 13.3 µg/mL and the “LD50 (open)^24h” value came to 8.6 ± 0.0 µg/mL. Further, in the data set with D. rerio embryos [2] (value ± STD), the “LD50 (opened)^1h” value is given as 20.6 ± 1.7 µg/mL and the “LD50 (opened)^24h” value was found to be 6.3 ± 2.3 µg/mL. In the data set with D. rerio embryos [2], the “LD50(closed)^24h/LD50(open)^24h ratio” value is reported as 22.9.
Regarding `Cc1sc2cc1C1=C(CCC1)c1cc(sc1C)C(=O)[C@@H]1CCCN1C(=O)[C@H](C(C)C)NC(=O)[C@H](CCCN)NC(=O)[C@H](C(C)C)NC(=O)[C@@H]1CCCN1C(=O)[C@@H](Cc1ccccc1)NC(=O)[C@H](C(C)C)NC(=O)[C@H](CCCN)NC(=O)[C@H](CC(=O)NC(C)C)NC2=O` [Peptide 7] (D(NHiPr)[Orn]V[dF]PV[Orn]V; linker N-C via X2), in the data set with D. rerio embryos [1], the “LD50 (open)^1h” value was determined as 15.9 ± 4.3 µg/mL, the “LD50 (open)^3h” value was 8.7 ± 9.1 µg/mL and the “LD50 (open)^24h” value turned out to be 5.8 ± 0.4 µg/mL. In the data set with D. rerio embryos [2] (value ± STD), the “LD50 (opened)^1h” value is 18.2 ± 4.6 µg/mL and the “LD50 (opened)^24h” value was found to be 3.0 ± 2.5 µg/mL. Also, in the data set on D. rerio embryos [2], the “LD50(closed)^24h/LD50(open)^24h ratio” value came out at 45.9.
